{"source": "patent US20230226058A1", "about": "“METHODS AND COMPOSITIONS FOR TREATING ACUTE KIDNEY INJURY” (CalciMedica, Inc., priority 2020, published 2023)", "origin": "cited, not measured here", "tested_on": "AKI rats", "data": [{"smiles": "Cc1nnsc1C(=O)Nc1ccc(-n2nc(C(F)(F)F)cc2C(F)(F)F)cc1", "note": "[YM58483/BPT2]", "values": [{"measurement": "infiltration of total CD4+ T-cells, B-cells, and dendritic cells following I/R", "setting": "AKI rats", "result": "attenuated"}, {"measurement": "Total IL17 expressing cells", "setting": "treated rats relative to vehicle treated rats", "result": "reduced"}]}]}
